The values that follow come from ChEMBL document CHEMBL6120974, “Hydrazide-Based Class I Selective HDAC Inhibitors Completely Reverse Chemoresistance Synergistically in Platinum-Resistant Solid Cancer Cells” (J Med Chem, 2024).

In brackets after ≈: the same amount, converted by molar mass. Activity calls are given as the source filed them. No cut-off for these calls is given here.

Data set [1] is described as follows: Solubility of the compound in PBS buffer at pH 7.4 incubated for 72 hrs by HPLC/UV analysis. The class given is physicochemical.
Data set [2] can be described thus: Lipophilicity, logD of the compound in 1-octanol/PBS buffer at pH 7.4 by HPLC/UV analysis. The note with it: 1-octanol/PBS buffer, read-out: logD. The class given is physicochemical.
Data set [3] concerns the target T1, Protein deacetylase HDAC6 (Homo sapiens) (UniProt Q9UBN7).
T1 sequence (whole entry): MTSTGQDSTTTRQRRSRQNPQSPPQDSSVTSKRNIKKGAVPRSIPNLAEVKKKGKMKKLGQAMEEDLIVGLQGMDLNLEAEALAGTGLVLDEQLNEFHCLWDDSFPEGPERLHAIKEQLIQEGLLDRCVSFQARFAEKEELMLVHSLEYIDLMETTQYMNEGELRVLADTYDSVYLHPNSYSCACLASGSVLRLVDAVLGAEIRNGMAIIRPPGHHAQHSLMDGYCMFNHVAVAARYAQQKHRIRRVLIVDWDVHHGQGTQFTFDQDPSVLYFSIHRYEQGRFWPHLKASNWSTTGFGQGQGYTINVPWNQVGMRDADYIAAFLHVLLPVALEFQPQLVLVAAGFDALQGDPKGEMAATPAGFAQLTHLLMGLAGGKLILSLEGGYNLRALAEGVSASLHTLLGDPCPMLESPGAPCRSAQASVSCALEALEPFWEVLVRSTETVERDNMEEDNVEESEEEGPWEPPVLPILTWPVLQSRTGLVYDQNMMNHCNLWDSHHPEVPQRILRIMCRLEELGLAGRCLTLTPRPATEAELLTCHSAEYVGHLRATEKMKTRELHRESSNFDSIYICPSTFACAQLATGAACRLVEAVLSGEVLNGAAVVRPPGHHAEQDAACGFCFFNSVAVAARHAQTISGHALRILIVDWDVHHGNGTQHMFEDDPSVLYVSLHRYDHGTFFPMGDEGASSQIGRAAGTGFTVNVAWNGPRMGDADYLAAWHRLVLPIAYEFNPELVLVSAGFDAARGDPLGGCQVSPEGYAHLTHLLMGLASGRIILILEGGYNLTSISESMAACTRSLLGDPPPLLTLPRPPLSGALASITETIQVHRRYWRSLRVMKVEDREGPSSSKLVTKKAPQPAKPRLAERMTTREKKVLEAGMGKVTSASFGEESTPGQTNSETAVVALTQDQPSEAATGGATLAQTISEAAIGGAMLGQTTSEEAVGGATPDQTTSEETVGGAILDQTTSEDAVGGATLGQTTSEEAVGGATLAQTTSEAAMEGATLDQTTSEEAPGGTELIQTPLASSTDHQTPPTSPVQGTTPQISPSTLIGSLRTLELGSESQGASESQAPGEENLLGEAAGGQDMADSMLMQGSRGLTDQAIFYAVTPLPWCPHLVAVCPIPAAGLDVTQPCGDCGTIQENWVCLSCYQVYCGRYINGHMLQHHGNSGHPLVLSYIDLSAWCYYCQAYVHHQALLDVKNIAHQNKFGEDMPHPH
Kind of data set: Inhibition of N-terminal GST-tagged full length recombinant human HDAC6 (1 to 1215 end residues) expressed in sf9 cells at > 10 uM using ZMAL (Z-Lys(Ac)-AMC as fluorogenic substrate preincubated with compound for 60 mins followed by substrate addition and measured after 90 mins by fluorescence based microplate reader analysis relative to control. Conditions: time 150.0 min.

Data set [4] deals with Cal27CisR. Kind of data set: Induction of apoptosis in cisplatin resistant human Cal27CisR cells assessed as decrease in BIM expression at 0.316 uM incubated for 24 to 72 hrs by Immunoblotting analysis. The note with it: time 24-72 hrs. The format is functional, cell-based.
For data set [5], the system named is Cal27CisR. Kind of data set: Induction of apoptosis in cisplatin resistant human Cal27CisR cells assessed as decrease in survivin expression at 0.316 uM incubated for 24 to 72 hrs by Immunoblotting analysis. The class given is functional, cell-based. The note with it: time 24-72 hrs.
The subject of data set [6] is Cal27CisR. Kind of data set: Induction of apoptosis in cisplatin resistant human Cal27CisR cells assessed as decrease in BAX expression at 0.316 uM incubated for 24 to 72 hrs by Immunoblotting analysis. The note with it: time 24-72 hrs. The class given is functional, cell-based.
The test system of the next data set is A2780. Kind of data set: Effect of Bcl-2 protein level in human A2780 cells at 0.75 uM incubated for 48 hrs by Immunoblotting analysis. The format is functional, cell-based.

The molecule `CCCNNC(=O)c1ccc(CN(CC(=O)NCc2ccccc2)C(=O)c2ccc(N(C)C)cc2)cc1` had a solubility at 72 h in data set [1] of 16.8 µg/mL (≈ 33.5 µM). In addition, the logD in data set [2] worked out at 3.76. Also, the inhibition in data set [3] was under 25%. The outcome in the data set with Cal27CisR [4], in the data set on Cal27CisR [5] and in the data set with Cal27CisR [6] was inactive.
Turning to `CCCCNNC(=O)c1ccc(CN(CC(=O)NCc2ccccc2)C(=O)c2ccc(N(C)C)cc2)cc1`, the outcome in the data set on A2780 was inactive.
